Values quoted from earlier work in patent US20200300859A1, “MODULATING BIOMARKERS TO INCREASE TUMOR IMMUNITY AND IMPROVE THE EFFICACY OF CANCER IMMUNOTHERAPY” (Dana-Farber Cancer Institute, Inc., priority 2017, published 2020).

Test system: osmotic nephrosis
Details: in vivo

SMILES: CN1C(=O)C(Cc2c[nH]c3ccccc23)NC1=S (stereo not shown) [Necrostatin-1, 5-(1H-Indol-3-ylmethyl)-3-methyl-2-thioxo-4-imidazolidinone]
- osmotic nephrosis: prevents
